From patent publication US8710064B2, “2-aryl-4-quinazolinones and their pharmaceutical compositions” (China Medical University, priority 2011, dated 2014)

Key:
M21 = assay: trypan blue exclusion assay, M21 cells; format: cell-based; details: Homo sapiens; M21 skin cancer; trypan blue exclusion assay; read-out: IC50 M21
Experimental: M21 cell line (human malignant melanoma) was provided by Dr. Feng-Yao Tang (China Medical University, Taiwan). Cells were grown in monolayer culture in RPMI-1640 medium, Eagle's minimum essential medium or Dulbecco's modified Eagles medium (Invitrogen Corporation, Grand Island, N.Y., USA) containing 10% fetal bovine serum (FBS; HyClone, Logan, Utah, USA), 100 U/ml penicillin and 100 μg/ml streptomycin (Gibco BRL, Rockville, Md., USA).
(§1) Cell viability was also determined by trypan-blue exclusion assay. Cells were seeded in 6-well plates (2×10^4/well) for trypan blue exclusion assay, and incubated for 24 hours at 37° C. Culture medium containing test compound or DMSO (0.006%) was added to each well, and cells were incubated at 37° C. At indicated time points (0, 24, 48, 72 and 96 hr), cells were suspended with 0.05% trypsin-EDTA, and stained with trypan-blue dye (0.4%) (Sigma). The cell viability was evaluated by the percentage of death relative to the total cell, and cell growth curve was determined by number of live cells relative to the total number of cells.
(§2) The anti-proliferation effects of Compounds 17-31 on M21, CH27, H460, Hep3B and HSC-3 cells were evaluated by the trypan blue exclusion assay.

[1] = test system: M21, CH27, H460, Hep3B and HSC-3 cells; assay: trypan blue exclusion assay, cancer cell panel (summary); format: cell-based; details: summary of Table 2
Experimental: as §1, §2

H460 = assay: trypan blue exclusion assay, H460 cells; format: cell-based; details: NCI-H460, H460 human non-small cell lung cancer
Experimental: (§3) Hep3B (human hepatocellular carcinoma) and H460 (lung non-small carcinoma) cells were grown in monolayer culture in Dulbecco's modified Eagle's medium (DMEM) (Life Technologies, Rockville, Md., USA) containing 5% fetal bovine serum (HyClone, Logan, Utah, USA), 100 U/ml penicillin and 100 μg/ml streptomycin (Gibco BRL, Rockville, Md., USA) and 2 mM glutamine (Merck, Darmstadt, Germany).
as §1, §2

Hep3B = assay: trypan blue exclusion assay, Hep3B cells; format: cell-based; details: Hep3B human hepatoma
Experimental: as §3, §1, §2

CH27 = assay: trypan blue exclusion assay, CH27 cells; format: cell-based; details: CH27 human lung squamous carcinoma
Experimental: CH27 cells (Human lung squamous carcinoma) were grown in monolayer culture in Dulbecco's modified Eagle's medium (DMEM; Life Technologies, Rockville, Md., USA) containing 5% FBS (HyClone, Logan, Utah, USA), 100 U/ml penicillin, […] streptomycin (Gibco BRL, Rockville, Md., USA) and 2 mM glutamine (Merck, Darmstadt, Germany).
as §1, §2

HSC-3 = assay: trypan blue exclusion assay, HSC-3 cells; format: cell-based, human; details: for IC50: HSC-3 human squamous carcinoma, trypan blue exclusion assay
Experimental: The HSC-3 (human oral squamous cell carcinoma) were cultured in 1:1 Dulbecco's Modified Eagle's Medium (DMEM) and Ham's Nutrient Mixture F-12, containing 10% FBS (HyClone, Logan, Utah, USA), 100 U/ml penicillin, 100 μg/ml streptomycin (Gibco BRL, Rockville, Md., USA) and 2 mM glutamine (Merck, Darmstadt, Germany).
as §1, §2

[2] = test system: U87 human glioma cell lines; assay: MTS cell viability assay, U87 glioma cells; format: cell-based; details: 48 hours, mean±SEM, n=3
Experimental: (§4) The human glioma cell lines U87, U251, T98G, U373, and rat glioma cell line RT2 provided by Dr. Michael Hsiao (Genomics Research Center, Academia Sinica, Taiwan) were cultured in Dulbecco's Modified Eagle medium (DMEM) (Caisson) supplemented with 10% fetal bovine serum (FBS) (Sigma-Aldrich), 2 mM L-glutamine (Caisson), 100 U/ml penicillin, and 100 μg/ml streptomycin (Caisson). The rat glioma C6 cell line provided by Dr. Shun-Fen Tzeng (National Cheng Kung University, Taiwan) was cultured in DMEM/F12 (Caisson) supplemented with 10% fetal bovine serum, 2 mM L-glutamine, 100 U/ml penicillin, and 100 μg/ml streptomycin. The human normal glia cell line SVGP12, kindly provided by Dr. Michael Hsiao, was cultured in Minimum Essential Medium (MEM) (Invitrogen) supplemented with 10% fetal bovine serum, 2 mM L-glutamine, 100 U/ml penicillin, and […]. Primary glia cells were prepared by surgery. Cerebral cortices without meninges were dissected from postnatal (P0-P2) Sprague-Dawley (SD, NCKU Laboratory Animal Center) rats and dissociated in 0.05% trypsin-EDTA (Biowest) at 37° C. for 10 min. Culture medium was added and pipetted for several times, and supernatant was removed after a centrifugation at 1,000 rpm for 5 minutes. […]
(§5) Cell proliferation was determined by MTS (tetrazolium compound, 3-(4,5-dimethylthiazol-2-yl)-5-(3-carboxymethoxyphenyl)-2-(4-sulfophenyl)-2H-tetrazolium) assay (Promega). […] The absorbance of soluble formazan was measured at 490 nm with microplate reader (Molecular device). The cell viability was determined by the percentage of the absorption relative to untreated control. […]
(§6) To investigate the effect of 2-aryl-4-quinazolinone in accordance with the present invention on cell proliferation, glioma cell lines were treated with MJ-66, MJ-68, or MJ-78. […] The cell viability of each group was analyzed by MTS assay (mean±SEM, n=3).

C6 rat glioma = assay: MTS cell viability assay, C6 glioma cells; format: cell-based; details: 48 hours, mean±SEM, n=3
Experimental: as §4, §5, §6

| Compound | IC50 (H460) | IC50 (Hep3B) | melting point | IC50 (M21) | cytotoxic effects toward cancer cells [1] | IC50 (CH27) | IC50 (HSC-3) | activity on HSC-3 cells (HSC-3; summary of Table 2) | IC50 [2] | IC50 (C6 rat glioma) |
| --- | --- | --- | --- | --- | --- | --- | --- | --- | --- | --- |
| COc1ccc2nc(-c3cccc4ccccc34)[nH]c(=O)c2c1 [Compound 17, 6-Methoxy-2-(naphthalen-1-yl) quinazolin-4-one] | 0.079 µM | 1.87 µM | – | 6.09 µM | exhibited cytotoxic effects | 0.089 µM | > 10 µM | inactive | – | – |
| COc1ccc2nc(-c3c[nH]c4ccccc34)[nH]c(=O)c2c1 [Compound 18, 6-Methoxy-2-(1H-indol-3-yl) quinazolin-4-one] | > 10 µM | > 10 µM | 311 to 312 °C | > 10 µM | – | > 10 µM | > 10 µM | – | – | – |
| COc1ccc2nc(-c3csc4ccccc34)[nH]c(=O)c2c1 [Compound 19, 6-Methoxy-2-(benzo[b]thiophen-3-yl) quinazolin-4-one] | > 10 µM | > 10 µM | 289 to 290 °C | > 10 µM | – | > 10 µM | > 10 µM | – | – | – |
| CN(C)c1ccc2nc(-c3cccc4ccccc34)[nH]c(=O)c2c1 [Compound 20, 6-(N,N-Dimethylamino)-2-(naphthalen-1-yl) quinazolin-4-one] | 0.506 µM | 8.63 µM | – | 3.77 µM | exhibited cytotoxic effects | 0.447 µM | 0.202 µM | – | – | – |
| CN(C)c1ccc2nc(-c3c[nH]c4ccccc34)[nH]c(=O)c2c1 [Compound 21, 6-(N,N-Dimethylamino)-2-(1H-indol-3-yl)quinazolin-4-one] | > 10 µM | > 10 µM | > 300 °C | > 10 µM | – | > 10 µM | > 10 µM | – | – | – |
| O=c1[nH]c(-c2c[nH]c3ccccc23)nc2ccc(N3CCCC3)cc12 [Compound 24, 6-(Pyrrolidin-1-yl)-2-(1H-indol-3-yl)quinazolin-4-one] | 8.81 µM | 7.39 µM | – | 7.63 µM | exhibited cytotoxic effects | 8.7 µM | 1.89 µM | – | – | – |
| O=c1[nH]c(-c2cccc3ccccc23)nc2ccc(N3CCCCC3)cc12 [Compound 26, 6-(Piperidin-1-yl)-2-(naphthalen-1-yl)quinazolin-4-one] | 0.376 µM | 7.24 µM | – | 1.59 µM | exhibited cytotoxic effects | 0.362 µM | 1.73 µM | – | 0.54 ± 0.24 µM | 0.47 ± 0.16 µM |
| O=c1[nH]c(-c2c[nH]c3ccccc23)nc2ccc(N3CCCCC3)cc12 [Compound 27, 6-(Piperidin-1-yl)-2-(1H-indol-3-yl)quinazolin-4-one] | 6.86 µM | 5.65 µM | – | 8.99 µM | exhibited cytotoxic effects | > 10 µM | > 10 µM | – | – | – |
| O=c1[nH]c(-c2cccc3ccccc23)nc2ccc(N3CCOCC3)cc12 [Compound 29, 6-(Morpholino)-2-(naphthalen-1-yl)quinazolin-4-one] | 0.432 µM | 1.06 µM | – | 2.33 µM | exhibited cytotoxic effects | 0.597 µM | 0.614 µM | – | – | – |

The next lines start with results.

| IC50 (H460) | IC50 (Hep3B) | melting point | Compound | IC50 (M21) | cytotoxic effects toward cancer cells [1] | IC50 (CH27) | IC50 (HSC-3) | activity on HSC-3 cells (HSC-3; summary of Table 2) | IC50 [2] | IC50 (C6 rat glioma) |
| --- | --- | --- | --- | --- | --- | --- | --- | --- | --- | --- |
| > 10 µM | > 10 µM | > 300 °C | CN(C)c1ccc2nc(-c3csc4ccccc34)[nH]c(=O)c2c1 [Compound 22] | > 10 µM | – | > 10 µM | > 10 µM | – | – | – |
| > 10 µM | > 10 µM | > 300 °C | O=c1[nH]c(-c2csc3ccccc23)nc2ccc(N3CCCC3)cc12 [Compound 25, 6-(Pyrrolidin-1-yl)-2-(benzo[b]thiophen-3-yl)quinazolin-4-one] | > 10 µM | – | > 10 µM | > 10 µM | – | > 1 µM | > 1 µM |
| > 10 µM | > 10 µM | > 300 °C | O=c1[nH]c(-c2csc3ccccc23)nc2ccc(N3CCCCC3)cc12 [Compound 28] | > 10 µM | – | > 10 µM | > 10 µM | – | – | – |
| > 10 µM | > 10 µM | > 300 °C | O=c1[nH]c(-c2c[nH]c3ccccc23)nc2ccc(N3CCOCC3)cc12 [Compound 30, 6-(Morpholino)-2-(1H-indol-3-yl)quinazolin-4-one] | > 10 µM | – | > 10 µM | > 10 µM | – | – | – |
| > 10 µM | > 10 µM | > 300 °C | O=c1[nH]c(-c2csc3ccccc23)nc2ccc(N3CCOCC3)cc12 [Compound 31, 6-(Morpholino)-2-(benzo[b]thiophen-3-yl) quinazolin-4-one] | > 10 µM | – | > 10 µM | > 10 µM | – | – | – |
